# Source: patent US8524718B2, “Heteroaromatic derivatives and their use as positive allosteric modulators of metabotropic glutamate receptors” (Addex Pharma S.A., priority 2007, dated 2013)
row,Compound,melting point
1,"CCc1sc(Nc2ccccn2)nc1-c1cn[nH]c1 [Compound 1-22, 5-Ethyl-4-(1H-pyrazol-4-yl)-N-(pyridin-2-yl)thiazol-2-amine]",243 to 246 °C
2,"Fc1ccc(F)c(Nc2cccc(-c3cn[nH]c3)n2)c1 [Compound 2-1, N-(2,5-Difluorophenyl)-6-(1H-pyrazol-4-yl)pyridin-2-amine]",198 to 199 °C
3,"Cc1sc(Nc2ccccn2)nc1-c1cnn(C(=O)C(C)C)c1 [Compound 1-26, 2-Methyl-1-(4-(5-methyl-2-(pyridin-2-ylamino)thiazol-4-yl)-1H-pyrazol-1-yl)propan-1-one]",168 °C
4,"OCc1sc(Nc2ccccn2)nc1-c1cn[nH]c1 [Compound 1-57, (4-(1H-Pyrazol-4-yl)-2-(pyridin-2-ylamino)thiazol-5-yl)methanol]",250 °C (dec.)
5,"CC(C)C(=O)n1cc(-c2nsc(Nc3ccccn3)n2)cn1 [Compound 1-36, 2-Methyl-1-(4-(5-(pyridin-2-ylamino)-1,2,4-thiadiazol-3-yl)-1H-pyrazol-1-yl)propan-1-one]",248 to 254 °C
6,"Cc1sc(Nc2cnccn2)nc1-c1cn[nH]c1 [Compound 1-39, 5-Methyl-N-(pyrazin-2-yl)-4-(1H-pyrazol-4-yl)thiazol-2-amine]",252 °C
7,"Cc1cccc(Nc2nc(-c3c[nH]nc3C)ns2)n1 [Compound 1-40, 3-(3-Methyl-1H-pyrazol-4-yl)-N-(6-methylpyridin-2-yl)-1,2,4-thiadiazol-5-amine]",> 300 °C
8,"Cc1n[nH]cc1-c1nsc(Nc2ncc(F)cc2F)n1 [Compound 1-44, N-(3,5-Difluoropyridin-2-yl)-3-(3-methyl-1H-pyrazol-4-yl)-1,2,4-thiadiazol-5-amine]",> 300 °C
9,"Cc1sc(Nc2ccccn2)nc1-c1cnn(C(=O)C2CCCCC2)c1 [Compound 1-28, Cyclohexyl(4-(5-methyl-2-(pyridin-2-ylamino)thiazol-4-yl)-1H-pyrazol-1-yl)methanone]",140 to 144 °C
10,"Cc1n[nH]cc1-c1nsc(Nc2cccc(Cl)n2)n1 [Compound 1-41, N-(6-Chloropyridin-2-yl)-3-(3-methyl-1H-pyrazol-4-yl)-1,2,4-thiadiazol-5-amine]",285 °C (dec.)
11,"Cc1sc(NC2CCCCC2)nc1-c1cn[nH]c1 [Compound 1-29, N-Cyclohexyl-5-methyl-4-(1H-pyrazol-4-yl)thiazol-2-amine]",205 to 207 °C
12,"Cc1sc(Nc2ccccn2)nc1-c1cnn(C(=O)NC(C)C)c1 [Compound 1-50, N-Isopropyl-4-(5-methyl-2-(pyridin-2-ylamino)thiazol-4-yl)-1H-pyrazole-1-carboxamide]",297 to 298 °C
13,"Cc1n[nH]cc1-c1nc(Nc2ccccn2)sc1C [Compound 1-15, 5-Methyl-4-(3-methyl-1H-pyrazol-4-yl)-N-(pyridin-2-yl)thiazol-2-amine]",218 °C
14,"Cc1cccc(Nc2nc(-c3cnn(C(=O)C(C)C)c3)c(C)s2)n1 [Compound 1-30, 2-Methyl-1-(4-(5-methyl-2-(6-methylpyridin-2-ylamino)thiazol-4-yl)-1H-pyrazol-1-yl)propan-1-one]",159 to 160 °C
15,"Cc1ccnc(Nc2nc(-c3cn[nH]c3)c(C)s2)c1 [Compound 1-19, 5-Methyl-N-(4-methylpyridin-2-yl)-4-(1H-pyrazol-4-yl)thiazol-2-amine]",274 °C
16,"Cc1n[nH]cc1-c1csc(Nc2cc(F)ccc2F)n1 [Compound 1-17, N-(2,5-Difluorophenyl)-4-(3-methyl-1H-pyrazol-4-yl)thiazol-2-amine]",196 to 199 °C
17,Cc1sc(Nc2cccc(F)n2)nc1-c1cnn(C(N)=O)c1,230 °C (dec.)
18,"c1ccc(Nc2nc(-c3cn[nH]c3)ns2)nc1 [Compound 1-35, 3-(1H-Pyrazol-4-yl)-N-(pyridin-2-yl)-1,2,4-thiadiazol-5-amine]",300 °C (dec.)
19,"Cc1cccc(Nc2nc(-c3c[nH]nc3C)cs2)n1 [Compound 1-23, 4-(3-Methyl-1H-pyrazol-4-yl)-N-(6-methylpyridin-2-yl)thiazol-2-amine]",295 °C (dec.)
20,"Cc1sc(Nc2ccccn2)nc1-c1cnn(C(=O)NC2CC2)c1 [Compound 1-59, N-Cyclopropyl-4-(5-methyl-2-(pyridin-2-ylamino)thiazol-4-yl)-1H-pyrazole-1-carboxamide]",270 °C (dec.)
21,"Cc1sc(Nc2ncc(F)cc2F)nc1-c1cn[nH]c1 [Compound 1-20, N-(3,5-Difluoropyridin-2-yl)-5-methyl-4-(1H-pyrazol-4-yl)thiazol-2-amine]",> 300 °C

# Other lines, results leading:
row,melting point,Compound
1,137 to 138 °C,"Cc1sc(Nc2ccccn2)nc1-c1cnn(C(=O)N2CCCCC2)c1 [Compound 1-34, (4-(5-Methyl-2-(pyridin-2-ylamino)thiazol-4-yl)-1H-pyrazol-1-yl)(piperidin-1-yl)methanone]"
2,276 to 278 °C,"CCc1cccc(Nc2nc(-c3cn[nH]c3)c(C)s2)n1 [Compound 1-48, N-(6-Ethylpyridin-2-yl)-5-methyl-4-(1H-pyrazol-4-yl)thiazol-2-amine]"
3,320 °C,"Cc1sc(Nc2ccc(F)cn2)nc1-c1cn[nH]c1 [Compound 1-24, N-(5-Fluoropyridin-2-yl)-5-methyl-4-(1H-pyrazol-4-yl)thiazol-2-amine]"
4,197 °C,"Cc1sc(NC2CCCC2)nc1-c1cn[nH]c1 [Compound 1-37, N-Cyclopentyl-5-methyl-4-(1H-pyrazol-4-yl)thiazol-2-amine]"
5,278 to 282 °C,"Cc1cccc(Nc2nc(-c3cn[nH]c3)c(Cl)s2)n1 [Compound 1-52, 5-Chloro-N-(6-methylpyridin-2-yl)-4-(1H-pyrazol-4-yl)thiazol-2-amine]"
6,276 to 278 °C,"Cc1ccnc(Nc2nc(-c3c[nH]nc3C)cs2)c1 [Compound 1-21, 4-(3-Methyl-1H-pyrazol-4-yl)-N-(4-methylpyridin-2-yl)thiazol-2-amine]"
7,317 to 319 °C,"Clc1cccc(Nc2nc(-c3cn[nH]c3)ns2)n1 [Compound 1-42, N-(6-Chloropyridin-2-yl)-3-(1H-pyrazol-4-yl)-1,2,4-thiadiazol-5-amine]"
8,276 °C,"Cc1cccc(Nc2nc(-c3cn[nH]c3)ns2)n1 [Compound 1-38, N-(6-Methylpyridin-2-yl)-3-(1H-pyrazol-4-yl)-1,2,4-thiadiazol-5-amine]"
9,193 °C,"Cc1sc(Nc2ccccn2)nc1-c1cnn(S(C)(=O)=O)c1 [Compound 1-45, 5-Methyl-4-(1-(methylsulfonyl)-1H-pyrazol-4-yl)-N-(pyridin-2-yl)thiazol-2-amine]"
